Results reported in US20080288176A1 (priority 2005, published 2008).

Experiments:
[1] = tested on: cardiac tissue prostacyclin (PGI2) to thromboxane A2 (TXB2) ratio; experiment: Cardiac tissue prostacyclin to thromboxane ratio; assay type: in vivo, rat; conditions: male Wistar rats; for Cardiac Tissue PGI2/TXB2, Mean: oral gavage, heart removed 6 hours after dosing
Description: Myocardial infarction and ischemic events in high risk patients led one of the most popular COX-2 inhibitors to its demise (Bresalier et al., 2005). Non-selective NSAIDS may also cause similar problems due to their ability to inhibit COX-2. […] Adenosine diphosphate (ADP) generation is an indicator of myocardial infarction which has no connection with the arachidonic acid cascade (Borna et al., 2005). […] Long term NSAID use has been linked to kidney damage and hypertension (Zafirovska et al., 1993). […] This was associated with an increase in the urine the ratio of alanine-amino-peptidase (AAP) and creatinine.
(§1) Table 1 is a summary of the protocol for a study which was conducted in male Wistar rats weighing 275-300 grams. The animals were allowed to acclimatize for at least five days prior to the commencement of the study. The study protocol was approved by the local animal ethics committee.
All rats were euthanized by removal of the heart 6 hours after initial dosing, following final blood collections. Immediately after terminal blood collections were complete, the thorax was opened and the heart removed. The heart was cut in half longitudinally. Half of the heart was placed in formalin for histological examination. The other half was quickly rinsed in saline and then freeze-clamped (crushed between the jaws of a pair of modified tongs, cooled by liquid nitrogen). An entire kidney was freeze-clamped. The other kidney was left in situ for examination by the pathologist. Freeze-clamped tissues were wrapped in labeled aluminum foil and stored in liquid nitrogen until they could be transferred to a −80° C. freezer. Freeze-clamped tissues were shipped on dry ice to NOVOKIN for analysis.

Hydrolysis in rat plasma = assay type: in vitro ADME; conditions: Rat
Description: (§2) The physiologically based pharmacokinetic/pharmacodynamic model of the present invention contains a series of compartments that describe the time course of a nonsteroidal anti-inflammatory prodrug, its active metabolites and nitric oxide release in intestine, liver, kidneys, blood/plasma and heart after prodrug administration. The time course of the prodrug, its active metabolites and nitric oxide release can be simulated using a series of in vitro and in silico inputs. The stability of each component in the gastrointestinal lumen is estimated using data collected from artificial gastric and intestinal juice. Intestinal metabolism is estimated using intestinal microsomes and absorption rate is estimated using permeability data collected from a cell monolayer such as Caco-2. Hepatic elimination is estimated using liver microsomes and stability in plasma is calculated using degradation of each component in the media. Plasma protein binding can either be measured using a standardized in vitro method or it can be estimated using an in silico method. The distribution of each component in various parts of the body is estimated using an in silico method. The rate of nitric oxide release is estimated using an in vitro endothelial cell model. The time course of prodrug, its active metabolites and nitric oxide can be simulated in human and animal using this physiologically based pharmacokinetic/pharmacodynamic model provided that the corresponding in vitro and in silico data are used as inputs.
(§3) Representative in vitro tests or in silico estimates include: (a) pKa estimation or measurement; (b) Log P measurement or in silico estimation; (c) Solubility in various physiological fluids; (d) Permeability. Caco-2 and/or NOVOKIN's proprietary animal and human cell lines can be used to obtain this parameter; (e) Metabolic rate in the intestine and liver. Human or animal intestinal microsomes, S9 fraction, and cytosol can be used for this purpose. Human or animal hepatocytes, liver microsomes, S9 fraction, and cytosol can also be used; (f) Hydrolysis in human or animal plasma; (g) Serum or plasma protein binding. It can be measured in vitro or estimated in silico; (h) The rate of NO release; (i) Existing pharmacokinetic and pharmacodynamic data of NSAID or a biocompatible agent; (j) Existing NO release rate of known diazeniumdiolate if applicable; (k) Stability in gastric and intestinal environment; and (l) In silico volume of distribution estimation.

male Wistar rats = experiment: Urine N-acetylglucosaminidase to creatinine ratio (distal tubule toxicity); assay type: in vivo, rat; conditions: oral gavage, urine collected for 6 hours
Protocol: as §1
All test animals, housed in metabolic cages, had urine collected over wet ice for 6 hours after dosing. Aliquots of the urine from each animal were collected to determine creatinine concentration. The remainder of the urine was centrifuged at 1000 g for 10 minutes. The supernatant was collected and mixed with analytical grade ethylene glycol at a rate of 0.4 mL ethylene glycol per 1 mL urine supernatant. The ethylene glycol/urine mixture was stored at −80° C. until analysis.

[2] = Hydrolysis in human liver microsomes; assay type: in vitro ADME; conditions: for liver microsomal activity: model input
Description: as §2, with “The” for “The physiologically based pharmacokinetic/pharmacodynamic model of the present invention contains a series of compartments that describe the time course of a nonsteroidal anti-inflammatory prodrug, its active metabolites and nitric oxide release in intestine, liver, kidneys, blood/plasma and heart after prodrug administration. The”
The selection of in vitro tests is designed to provide parameters for the above mentioned model. The use of an inappropriate test would result in wrong predictions.
as §3
The simulation begins with no material in all compartments except for the initial bolus in one compartment (typically the stomach compartment). The simulation then estimates the changing distribution of the material with time.

[3] = Hydrolysis in rat intestinal microsomes; assay type: in vitro ADME; conditions: for intestinal microsomal activity: model input
Description: as §2, §3
Whenever in vitro estimate is attainable, the in vitro results will be used, for example, plasma protein binding. Methods reported by Bowalgaha & Miners (2001), Martignoni et al. (2006), Tong et al. (2001) and Thulesen et al. (1999) were used for in vitro and in vivo scale-up for clearance in the intestine, absorption rate constant and hepatic clearance. The simulation begins with no material in all compartments except for the initial bolus in one compartment (typically the stomach compartment). The simulation then estimates the changing distribution of the material with time.

Structure (SMILES) | PGI2/TXA2 ratio comparison (in words) ([1]; cardiac tissue) | Cardiac Tissue PGI2/TXB2, Mean [1] | plasma decay rate constant (Hydrolysis in rat plasma) [min⁻¹] | Urine NAG/Cr values, Mean (male Wistar rats) | liver microsomal activity [2] [mL/min/organ] | intestinal microsomal activity [3] [mL/min/organ] | liver molar percent conversion to Naproxen [2] [%] | intestinal molar percent conversion to Naproxen [3] [%]
COc1ccc2cc([C@H](C)C(=O)OCCCCO[N+](=O)[O-])ccc2c1 [AZD 3582] | lower ratios than vehicle | 3.432 | 1.0 | 27.439 | 118566 | 0.09 | – | –
COc1ccc2cc(C(C)C(=O)OCON=[N+]([O-])N3CCCC3)ccc2c1 (stereo not shown) [PYRO-NO-NAP, pyrrolidino-diazeniumdiolate-naproxen] | – | 4.937 | 1.4 | 21.515 | 567000 | 1 | 72 | 10
